Structures are written as SMILES. Calls of active or inactive are those of the source. The calls are words filed in the database; no cut-off is given here.

The subject of test [1] is COS-7. Kind of test: Inhibition of RabGGTase in african green monkey COS7 cells assessed as Rab prenylation up to 50 uM by Western blot analysis. In kind it is cell-based. On the technique in general: A western blot detects proteins with antibodies after separation by electrophoresis.
Test [2] relates to Protein farnesyltransferase subunit beta (Homo sapiens), P49356 [W102T,Y154T,Y205T]. Kind of test: Binding affinity at FTase W102T/Y154T/Y205T mutant assessed as prenylation of dansyl-labeled GCVLS by fluorescence based assay.
Protein farnesyltransferase subunit beta (Homo sapiens), P49356 [W102T,Y154T,Y205T], sequence (P49356 whole entry W102T/Y154T/Y205T): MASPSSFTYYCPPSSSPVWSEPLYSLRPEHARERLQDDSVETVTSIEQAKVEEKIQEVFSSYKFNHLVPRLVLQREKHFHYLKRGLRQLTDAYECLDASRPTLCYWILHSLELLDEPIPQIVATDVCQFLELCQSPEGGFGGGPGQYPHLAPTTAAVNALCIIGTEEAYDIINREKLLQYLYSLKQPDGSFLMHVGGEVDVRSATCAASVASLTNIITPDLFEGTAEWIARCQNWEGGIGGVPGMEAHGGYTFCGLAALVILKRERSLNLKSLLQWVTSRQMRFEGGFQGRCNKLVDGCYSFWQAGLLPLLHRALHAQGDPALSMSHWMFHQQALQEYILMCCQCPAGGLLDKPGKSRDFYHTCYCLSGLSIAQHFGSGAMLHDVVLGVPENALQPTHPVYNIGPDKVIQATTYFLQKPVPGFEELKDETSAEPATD
Test [3] has the same test system. In words: Binding affinity to FTase W102T/Y154T/Y205T mutant assessed as prenylation of dansyl-labeled GCVLL by fluorescence based assay.
Test [4] has as its system Geranylgeranyl transferase type-1 subunit beta (Homo sapiens), P53609 [F52Y,F53Y,Y126T]. Kind of test: Binding affinity to GGTase-1 F52Y/F53Y/Y126T mutant assessed as prenylation of dansyl-labeled GCVLS by fluorescence based assay.
Test [5] shares this test system. Kind of test: Binding affinity to GGTase-1 F52Y/F53Y/Y126T mutant assessed as prenylation of dansyl-labeled GCVLL by fluorescence based assay.
Test [6] deals with COS-7. In words: Inhibition of GGTase-1 in african green monkey COS7 cells assessed as protein prenylation at >5 uM by Western blot analysis. In kind it is cell-based.
The test system of test [7] is COS-7. Kind of test: Inhibition of FTase in african green monkey COS7 cells assessed as protein prenylation at 15 uM by Western blot analysis. Format: cell-based.
Test [8] deals with COS-7. In words: Inhibition of RabGGTase in african green monkey COS7 cells assessed as Rab prenylation by Western blot analysis. In kind it is cell-based.
The subject of test [9] is COS-7. Kind of test: Inhibition of FTase in african green monkey COS7 cells assessed as protein prenylation at 100 uM by Western blot analysis. In kind it is cell-based.
In test [10] the test system is COS-7. Kind of test: Inhibition of isoprenoid biosynthesis in african green monkey COS7 assessed as unprenylated Rab protein level by Western blot analysis. In kind it is functional, cell-based. Conditions: Chlorocebus aethiops.
The test system of test [11] is COS-7. In words: Inhibition of RabGGTase in african green monkey COS7 cells assessed as unprenylated Rab01A level by MudPIT analysis. In kind it is cell-based.
The subject of test [12] is COS-7. Kind of test: Inhibition of RabGGTase in african green monkey COS7 cells assessed as unprenylated Rab01B level by MudPIT analysis. Format: cell-based.
The subject of test [13] is COS-7. In words: Inhibition of RabGGTase in african green monkey COS7 cells assessed as unprenylated Rab02A level by MudPIT analysis. In kind it is cell-based.
The test system of test [14] is COS-7. Kind of test: Inhibition of RabGGTase in african green monkey COS7 cells assessed as unprenylated Rab02B level by MudPIT analysis. In kind it is cell-based.
The test system of test [15] is COS-7. In words: Inhibition of RabGGTase in african green monkey COS7 cells assessed as unprenylated Rab03A level by MudPIT analysis. Format: cell-based.
The test system of test [16] is COS-7. Kind of test: Inhibition of RabGGTase in african green monkey COS7 cells assessed as unprenylated Rab03B level by MudPIT analysis. In kind it is cell-based.
Test [17] concerns COS-7. Kind of test: Inhibition of RabGGTase in african green monkey COS7 cells assessed as unprenylated Rab03C level by MudPIT analysis. Format: cell-based.
The test system of test [18] is COS-7. In words: Inhibition of RabGGTase in african green monkey COS7 cells assessed as unprenylated Rab03D level by MudPIT analysis. Format: cell-based.
Test [19] has as its system COS-7. Kind of test: Inhibition of RabGGTase in african green monkey COS7 cells assessed as unprenylated Rab04A level by MudPIT analysis. Format: cell-based.
For test [20], the system named is COS-7. In words: Inhibition of RabGGTase in african green monkey COS7 cells assessed as unprenylated Rab04B level by MudPIT analysis. In kind it is cell-based.
Test [21] concerns COS-7. Kind of test: Inhibition of RabGGTase in african green monkey COS7 cells assessed as unprenylated Rab05A level by MudPIT analysis. In kind it is cell-based.
Test [22] deals with COS-7. Kind of test: Inhibition of RabGGTase in african green monkey COS7 cells assessed as unprenylated Rab05B level by MudPIT analysis. Format: cell-based.
For test [23], the system named is COS-7. In words: Inhibition of RabGGTase in african green monkey COS7 cells assessed as unprenylated Rab05C level by MudPIT analysis. Format: cell-based.
For test [24], the system named is COS-7. In words: Inhibition of RabGGTase in african green monkey COS7 cells assessed as unprenylated Rab06A level by MudPIT analysis. Format: cell-based.
Test [25] relates to COS-7. Kind of test: Inhibition of RabGGTase in african green monkey COS7 cells assessed as unprenylated Rab06B level by MudPIT analysis. Format: cell-based.
Test [26] has as its system COS-7. Kind of test: Inhibition of RabGGTase in african green monkey COS7 cells assessed as unprenylated Rab06C level by MudPIT analysis. Format: cell-based.
Test [27] deals with COS-7. Kind of test: Inhibition of RabGGTase in african green monkey COS7 cells assessed as unprenylated Rab07a level by MudPIT analysis. Format: cell-based.
Test [28] has as its system COS-7. Kind of test: Inhibition of RabGGTase in african green monkey COS7 cells assessed as unprenylated Rab08A level by MudPIT analysis. In kind it is cell-based.
The test system of test [29] is COS-7. Kind of test: Inhibition of RabGGTase in african green monkey COS7 cells assessed as unprenylated Rab08B level by MudPIT analysis. In kind it is cell-based.
The subject of test [30] is COS-7. In words: Inhibition of RabGGTase in african green monkey COS7 cells assessed as unprenylated Rab09A level by MudPIT analysis. Format: cell-based.
For test [31], the system named is COS-7. Kind of test: Inhibition of RabGGTase in african green monkey COS7 cells assessed as unprenylated Rab09B level by MudPIT analysis. Format: cell-based.
The test system of test [32] is COS-7. In words: Inhibition of RabGGTase in african green monkey COS7 cells assessed as unprenylated Rab10 level by MudPIT analysis. In kind it is cell-based.
Test [33] concerns COS-7. Kind of test: Inhibition of RabGGTase in african green monkey COS7 cells assessed as unprenylated Rab11A level by MudPIT analysis. In kind it is cell-based.
Test [34] concerns COS-7. In words: Inhibition of RabGGTase in african green monkey COS7 cells assessed as unprenylated Rab11B level by MudPIT analysis. Format: cell-based.
The subject of test [35] is COS-7. In words: Inhibition of RabGGTase in african green monkey COS7 cells assessed as unprenylated Rab13 level by MudPIT analysis. In kind it is cell-based.
Test [36] deals with COS-7. Kind of test: Inhibition of RabGGTase in african green monkey COS7 cells assessed as unprenylated Rab14 level by MudPIT analysis. In kind it is cell-based.
In test [37] the test system is COS-7. Kind of test: Inhibition of RabGGTase in african green monkey COS7 cells assessed as unprenylated Rab15 level by MudPIT analysis. Format: cell-based.
In test [38] the test system is COS-7. In words: Inhibition of RabGGTase in african green monkey COS7 cells assessed as unprenylated Rab18 level by MudPIT analysis. Format: cell-based.
For test [39], the system named is COS-7. In words: Inhibition of RabGGTase in african green monkey COS7 cells assessed as unprenylated Rab21 level by MudPIT analysis. Format: cell-based.
Test [40] has as its system COS-7. Kind of test: Inhibition of RabGGTase in african green monkey COS7 cells assessed as unprenylated Rab22A level by MudPIT analysis. Format: cell-based.
Test [41] concerns COS-7. Kind of test: Inhibition of RabGGTase in african green monkey COS7 cells assessed as unprenylated Rab27A level by MudPIT analysis. In kind it is cell-based.
The test system of test [42] is COS-7. Kind of test: Inhibition of RabGGTase in african green monkey COS7 cells assessed as unprenylated Rab27B level by MudPIT analysis. Format: cell-based.
The test system of test [43] is COS-7. In words: Inhibition of RabGGTase in african green monkey COS7 cells assessed as unprenylated Rab30 level by MudPIT analysis. Format: cell-based.
The subject of test [44] is COS-7. In words: Inhibition of RabGGTase in african green monkey COS7 cells assessed as unprenylated Rab31 level by MudPIT analysis. Format: cell-based.
Test [45] concerns COS-7. In words: Inhibition of RabGGTase in african green monkey COS7 cells assessed as unprenylated Rab33B level by MudPIT analysis. In kind it is cell-based.
The test system of test [46] is COS-7. Kind of test: Inhibition of RabGGTase in african green monkey COS7 cells assessed as unprenylated Rab34 level by MudPIT analysis. Format: cell-based.
Test [47] deals with COS-7. Kind of test: Inhibition of RabGGTase in african green monkey COS7 cells assessed as unprenylated Rab35 level by MudPIT analysis. In kind it is cell-based.
The test system of test [48] is COS-7. Kind of test: Inhibition of RabGGTase in african green monkey COS7 cells assessed as unprenylated Rab37 level by MudPIT analysis. Format: cell-based.
Test [49] deals with COS-7. In words: Inhibition of RabGGTase in african green monkey COS7 cells assessed as unprenylated Rab39A level by MudPIT analysis. Format: cell-based.
Test [50] has as its system COS-7. Kind of test: Inhibition of RabGGTase in african green monkey COS7 cells assessed as unprenylated Rab41 level by MudPIT analysis. Format: cell-based.
Test [51] deals with COS-7. In words: Inhibition of RabGGTase in african green monkey COS7 cells assessed as unprenylated Rab43 level by MudPIT analysis. Format: cell-based.
The subject of test [52] is COS-7. In words: Inhibition of RabGGTase in african green monkey COS7 cells assessed as unprenylated Rab39B level by MudPIT analysis. Format: cell-based.

Geranylgeranyl transferase type-1 subunit beta (Homo sapiens), P53609 [F52Y,F53Y,Y126T], sequence (P53609 whole entry F52Y/F53Y/Y126T): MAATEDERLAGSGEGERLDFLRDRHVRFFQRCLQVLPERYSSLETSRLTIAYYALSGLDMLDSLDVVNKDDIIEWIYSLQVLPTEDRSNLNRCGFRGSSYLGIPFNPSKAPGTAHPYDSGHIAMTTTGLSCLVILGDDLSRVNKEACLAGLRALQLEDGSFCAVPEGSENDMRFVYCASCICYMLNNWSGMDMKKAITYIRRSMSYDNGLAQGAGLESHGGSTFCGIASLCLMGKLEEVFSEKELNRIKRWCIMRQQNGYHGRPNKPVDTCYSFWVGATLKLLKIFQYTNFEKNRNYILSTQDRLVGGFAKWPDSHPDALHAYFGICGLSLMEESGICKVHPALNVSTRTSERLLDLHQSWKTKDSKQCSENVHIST

For the molecule `CCCCCCS[C@H]1[C@@H](C(=O)O)[C@H](c2ccc(Br)cc2)N(S(=O)(=O)c2ccc(C)cc2)[C@@H]1CCCCCC`, in the test with COS-7 [1], the inhibition result is “inactive”.

For `CC(C)=CCC/C(C)=C/CC/C(C)=C/CC/C(C)=C/COP(=O)(O)OP(=O)(O)O`, the result in test [2], in test [3], in [4] and in test [5] was inactive.

Take `CCC[C@@H]1[C@@H](Sc2ccc(OC)cc2)[C@@H](C(=O)O)[C@H](c2ccc(Br)cc2)N1S(=O)(=O)c1ccc(C)cc1`: in the test on COS-7 [1], the inhibition entry was “inactive”.

`CCCCCCS[C@H]1[C@@H](C(=O)O)[C@H](c2ccc(Br)cc2)N(S(=O)(=O)c2ccc(C)cc2)[C@@H]1CCC`: the inhibition entry in the test on COS-7 [1] was “inactive”.

For `COC(=O)[C@H](CC(C)C)NC(=O)c1ccc(NC[C@@H](N)CS)cc1-c1cccc2ccccc12`, the inhibition entry in the test on COS-7 [6] and with COS-7 [7] was “Active” each time. Further, the inhibition result with COS-7 [8] is “inactive”.

With `CSCC[C@H](NC(=O)[C@H](Cc1ccccc1)NC[C@@H](NC[C@@H](N)CS)C(C)C)C(=O)O`, the inhibition result in the test with COS-7 [9] is “inactive”.

Turning to `CC[C@H](C)C(=O)O[C@H]1CCC=C2C=C[C@H](C)[C@H](CC[C@@H]3C[C@@H](O)CC(=O)O3)[C@H]21`, in the test with COS-7 [10], the inhibition entry is “Active”. In addition, the Activity in the test on COS-7 [11] came to 1.7 pmol; with COS-7 [12], 1.8 pmol; with COS-7 [13] it was 1.2 pmol; in the test with COS-7 [14] it was 0.5 pmol; with COS-7 [15], 0.7 pmol; with COS-7 [16], 0.4 pmol. Also, the Activity in the test with COS-7 [17] came out at 0.4 pmol; with COS-7 [18], 1.1 pmol; in the test on COS-7 [19] it was 0.2 pmol; in the test with COS-7 [20] it was 0.2 pmol; with COS-7 [21] it was 1.3 pmol; with COS-7 [22], 1.1 pmol. Besides, the Activity was determined as 1.6 pmol in the test on COS-7 [23]; 0.8 pmol in the test with COS-7 [24]; 0.6 pmol with COS-7 [25]; 0.2 pmol with COS-7 [26]; 1.7 pmol in the test with COS-7 [27]; 0.6 pmol in the test with COS-7 [28]. Besides, the Activity in the test with COS-7 [29] came out at 0.4 pmol; in the test with COS-7 [30] it was 0.8 pmol; in the test on COS-7 [31], 0.3 pmol; with COS-7 [32], 1 pmol; in the test with COS-7 [33], 1.2 pmol; in the test with COS-7 [34] it was 1.5 pmol. Also, the Activity with COS-7 [35] was 0.4 pmol; in the test with COS-7 [36], 1.5 pmol; in the test with COS-7 [37], 0.1 pmol; in the test on COS-7 [38], 0.7 pmol; in the test on COS-7 [39] it was 0.6 pmol; with COS-7 [40] it was 0.8 pmol. Besides, the Activity came to 0.1 pmol in the test with COS-7 [41]; 0.1 pmol in the test on COS-7 [42]; 0.2 pmol in the test on COS-7 [43]; 0.3 pmol in the test on COS-7 [44]; 0.2 pmol with COS-7 [45]; 0.1 pmol in the test on COS-7 [46]. In addition, the Activity in the test with COS-7 [47] is 0.6 pmol; in the test with COS-7 [48] it was 0.2 pmol; in the test with COS-7 [49], 0.2 pmol; with COS-7 [50], 0.2 pmol; with COS-7 [51] it was 0.2 pmol; with COS-7 [52], 0.2 pmol.
